How the values were obtained:
[1] = system: grapes of the variety Flame Seedless; assay type: in vivo
Source text: Treatment (HBR) was twice applied to grapes of the variety Flame Seedless. Treatments consisted of either HBR or ProGibb (ProGibb 4%, a plant growth regulator commonly used on table grapes for berry thinning and/or increasing berry size). At the first application (Day 0) the grapes were approximately 3 mm in diameter. The second application was seven days later (Day 7) when the grapes were approximately 6 mm in diameter. The HBR was applied with a backpack mist blower at a rate if 100 gallons per acre. Grapes were evaluated for Cluster Color Rating and Cluster Color Intensity (Hue) on about Day 65 by comparing test subjects with the control of condition 1. The same data set was analyzed for berry weight, berry firmness, Brix units, and phytotoxicity.

[2] = system: grapes (var. Scarlet Royal); assay: Experiment 2: HBR spray application on Scarlet Royal grapes; assay type: in vivo; conditions: for berry hue / cluster color / soluble solids: evaluations Days 54-97; for ripening responses: ethephon standard treatment (Day 45), versus untreated check
Source text: Homobrassinolide (HBR) was applied on grapes (var. Scarlet Royal) at late bloom (Day 0), or at late bloom (Day 0) and again at approximately 1 week after berry set (Day 7). Grapes were approximately 3 mm in diameter at Day 0 and 6 mm in diameter at Day 7. HBR was applied at rates of 0.5 ppm/aiA, 1.0 ppm/aiA, and 2.0 ppm/aiA. Spray applications were made using a backpack mistblower to simulate commercial airblast applications at 100 gpa. Controls were an untreated group, and a group that received the standard treatment with Ethephon approximately two weeks after color break (Day 45). Evaluations were made at Days 54, 66, 75, 82, 90, and 97. All treated groups also received Latron B1956 which was added to each tank mix as a surfactant (0.125% v/v). Soluble solids, cluster color, and berry hue were enhanced by HBR and the ethephon standard treatment. […] Results are illustrated in Table 3 (FIG. 4).

[3] = system: grapes; conditions: Lenahan et al., 2006; cited from earlier work
[4] = HBR on Day 0 at 2.5 ppm/aiA, versus control, evaluated about Day 65
[5] = two applications, or single application of 1.0 or 2.0 ppm/aiA, versus single application of 0.5 ppm/aiA HBR

| SMILES | degrees Brix of the grapes ([1]; HBR on Day 0) | color intensity per reddish cluster [1, 4] | percentage of clusters per plot that were noticeably reddish [1, 4] | color intensity within each identified reddish cluster ([1]; HBR treatment, versus control) | percentage of reddish grapes within each identified reddish cluster ([1]; HBR treatment, versus control) | phytotoxicity ([1]; in vivo) | berry hue ([2]; Scarlet Royal) | cluster color ([2]; Scarlet Royal) | soluble solids ([2]; Scarlet Royal) | efficacy ranking of treatments ([2]; double spray of 2 ppm ai HBR, compared to the ethephon standard treatment) | ripening responses ([2]; double spray of 2 ppm ai HBR) | crop injury ([2]; in vivo) | rate response ([2]; single spray timing treatments (0.5, 1.0, 2.0 ppm/aiA) versus untreated check) | hue [2, 5] | percentages of clusters of color [2, 5] | soluble solids and Brix degrees [2, 5] | firmness of grapes [3] | crop injury ([2]; all treatments, Scarlet Royal) |
| --- | --- | --- | --- | --- | --- | --- | --- | --- | --- | --- | --- | --- | --- | --- | --- | --- | --- | --- |
| CC[C@@H](C(C)C)C(O)C(O)[C@@H](C)[C@H]1CC[C@H]2[C@@H]3COC(=O)[C@H]4C[C@H](O)[C@H](O)C[C@]4(C)[C@H]3CC[C@]12C (stereo in doubt) [HBR, homobrassinolide] | tended to increase | more intense color per reddish cluster than control | increased the percentage of clusters per plot that were noticeably reddish | increased the color intensity | increased the percentage of reddish grapes | no observed phytotoxicity | enhanced | enhanced | enhanced | most efficacious treatment | significantly more effective than the untreated check | No crop injury was observed | positive rate response | greater hue | increased percentages of clusters of color | increased soluble solids and Brix degrees | – | – |
| C=C1C[C@]23C[C@@]1(O)CC[C@H]2[C@@]12C=C[C@H](O)[C@@](C)(C(=O)O1)[C@H]2[C@@H]3C(=O)O [GA3, gibberellic acid] | – | – | – | – | – | – | – | – | – | – | – | – | – | – | – | – | increase firmness | – |
| O=P(O)(O)CCCl [ethephon, Ethephon, reference compound] | – | – | – | – | – | – | enhanced | enhanced | enhanced | – | significantly more effective than the untreated check | – | – | – | – | – | – | No crop injury was observed |

Source: patent publication US20200345008A1, “Increased grape yields with brassinosteroid application” (priority 2019, published 2020)
